Source: ChEMBL document CHEMBL3046579, “Synthesis, anticancer and MRP1 inhibitory activities of 4-alkyl/aryl-3,5-bis(carboethoxy/carbomethoxy)-1,4-dihydro-2,6-dimethylpyridines” (Med Chem Res, 2013)

Test system: HT-29
Assay: Cytotoxicity against Homo sapiens (human) HT-29 cells assessed as cell viability after 48 hr by MTT assay
Type: functional, cell-based
Conditions: Homo sapiens, HT-29, 48 h; read-out: IC50; call rule not given here

SMILES	IC50 [µM]
CCOC(=O)C1=C(C)NC(C)=C(C(=O)OCC)C1c1ccc(C)cc1	310
COC(=O)C1=C(C)NC(C)=C(C(=O)OC)C1c1ccc(OC)cc1	452
CCCCC1C(C(=O)OC)=C(C)NC(C)=C1C(=O)OC	500
CCOC(=O)C1=C(C)NC(C)=C(C(=O)OCC)C1c1ccc(Cl)cc1	262
CCOC(=O)C1=C(C)NC(C)=C(C(=O)OCC)C1c1cccc([N+](=O)[O-])c1	500

Same assay, conditions: ht-29

SMILES	IC50
COC(=O)C1=C(C)NC(C)=C(C(=O)OC)C1c1ccccc1	Not Active
CCOC(=O)C1=C(C)NC(C)=C(C(=O)OCC)C1c1ccc(OC)cc1	Not Active
COC(=O)C1=C(C)NC(C)=C(C(=O)OC)C1c1ccc(C)cc1	Not Active
CCCC1C(C(=O)OC)=C(C)NC(C)=C1C(=O)OC	Not Active
CCOC(=O)C1=C(C)NC(C)=C(C(=O)OCC)C1c1ccccc1	Not Active
COC(=O)C1=C(C)NC(C)=C(C(=O)OC)C1c1ccc(Cl)cc1	Not Active
CCCCC1C(C(=O)OCC)=C(C)NC(C)=C1C(=O)OCC	Not Active
CCCC1C(C(=O)OCC)=C(C)NC(C)=C1C(=O)OCC	Not Active

Test system: not listed separately
Assay: Cytotoxicity against Homo sapiens (human) HSG cells
Type: functional, cell-based
Conditions: not given

SMILES	IC50 [µM]
CC1=C(C(=O)c2ccccc2)C(c2ccccc2Cl)C(C(=O)c2ccccc2)=C(C)N1	28
CC1=C(C(=O)c2ccccc2)C(c2ccccc2C(F)(F)F)C(C(=O)c2ccccc2)=C(C)N1	8.7

Test system: not listed separately
Assay: Cytotoxicity against Homo sapiens (human) MDA-MB cells assessed as cell viability after 48 hr by MTT assay
Type: functional, cell-based
Conditions: Homo sapiens, MDA-MB, 48 h; read-out: IC50

SMILES	IC50 [µM]
CCOC(=O)C1=C(C)NC(C)=C(C(=O)OCC)C1c1ccc(C)cc1	500
CCOC(=O)C1=C(C)NC(C)=C(C(=O)OCC)C1c1ccc(OC)cc1	331
COC(=O)C1=C(C)NC(C)=C(C(=O)OC)C1c1ccc(C)cc1	500
CCOC(=O)C1=C(C)NC(C)=C(C(=O)OCC)C1c1ccc(Cl)cc1	268
COC(=O)C1=C(C)NC(C)=C(C(=O)OC)C1c1ccc(Cl)cc1	460
CCOC(=O)C1=C(C)NC(C)=C(C(=O)OCC)C1c1cccc([N+](=O)[O-])c1	244
CCCCC1C(C(=O)OCC)=C(C)NC(C)=C1C(=O)OCC	350
CCCC1C(C(=O)OCC)=C(C)NC(C)=C1C(=O)OCC	500

Same assay, conditions: mda-mb

SMILES	IC50
COC(=O)C1=C(C)NC(C)=C(C(=O)OC)C1c1ccccc1	Not Active
COC(=O)C1=C(C)NC(C)=C(C(=O)OC)C1c1ccc(OC)cc1	Not Active
CCCC1C(C(=O)OC)=C(C)NC(C)=C1C(=O)OC	Not Active
CCCCC1C(C(=O)OC)=C(C)NC(C)=C1C(=O)OC	Not Active
CCOC(=O)C1=C(C)NC(C)=C(C(=O)OCC)C1c1ccccc1	Not Active

Biological target: T1, MRP1 (Homo sapiens, UniProt P33527)
Assay: Inhibition of Homo sapiens (human) MRP1 expressed in Sf9 cell membranes assessed as decrease in N-ethyl-maleimide-glutathione-induced inorganic phosphate production at 50 uM by spectrophotometric analysis in presence of glutathione relative to control
Conditions: Sf9 cell membranes expressing human MRP1, probe N-ethyl-maleimide-glutathione, read-out: Imax

T1 sequence (P33527 whole entry): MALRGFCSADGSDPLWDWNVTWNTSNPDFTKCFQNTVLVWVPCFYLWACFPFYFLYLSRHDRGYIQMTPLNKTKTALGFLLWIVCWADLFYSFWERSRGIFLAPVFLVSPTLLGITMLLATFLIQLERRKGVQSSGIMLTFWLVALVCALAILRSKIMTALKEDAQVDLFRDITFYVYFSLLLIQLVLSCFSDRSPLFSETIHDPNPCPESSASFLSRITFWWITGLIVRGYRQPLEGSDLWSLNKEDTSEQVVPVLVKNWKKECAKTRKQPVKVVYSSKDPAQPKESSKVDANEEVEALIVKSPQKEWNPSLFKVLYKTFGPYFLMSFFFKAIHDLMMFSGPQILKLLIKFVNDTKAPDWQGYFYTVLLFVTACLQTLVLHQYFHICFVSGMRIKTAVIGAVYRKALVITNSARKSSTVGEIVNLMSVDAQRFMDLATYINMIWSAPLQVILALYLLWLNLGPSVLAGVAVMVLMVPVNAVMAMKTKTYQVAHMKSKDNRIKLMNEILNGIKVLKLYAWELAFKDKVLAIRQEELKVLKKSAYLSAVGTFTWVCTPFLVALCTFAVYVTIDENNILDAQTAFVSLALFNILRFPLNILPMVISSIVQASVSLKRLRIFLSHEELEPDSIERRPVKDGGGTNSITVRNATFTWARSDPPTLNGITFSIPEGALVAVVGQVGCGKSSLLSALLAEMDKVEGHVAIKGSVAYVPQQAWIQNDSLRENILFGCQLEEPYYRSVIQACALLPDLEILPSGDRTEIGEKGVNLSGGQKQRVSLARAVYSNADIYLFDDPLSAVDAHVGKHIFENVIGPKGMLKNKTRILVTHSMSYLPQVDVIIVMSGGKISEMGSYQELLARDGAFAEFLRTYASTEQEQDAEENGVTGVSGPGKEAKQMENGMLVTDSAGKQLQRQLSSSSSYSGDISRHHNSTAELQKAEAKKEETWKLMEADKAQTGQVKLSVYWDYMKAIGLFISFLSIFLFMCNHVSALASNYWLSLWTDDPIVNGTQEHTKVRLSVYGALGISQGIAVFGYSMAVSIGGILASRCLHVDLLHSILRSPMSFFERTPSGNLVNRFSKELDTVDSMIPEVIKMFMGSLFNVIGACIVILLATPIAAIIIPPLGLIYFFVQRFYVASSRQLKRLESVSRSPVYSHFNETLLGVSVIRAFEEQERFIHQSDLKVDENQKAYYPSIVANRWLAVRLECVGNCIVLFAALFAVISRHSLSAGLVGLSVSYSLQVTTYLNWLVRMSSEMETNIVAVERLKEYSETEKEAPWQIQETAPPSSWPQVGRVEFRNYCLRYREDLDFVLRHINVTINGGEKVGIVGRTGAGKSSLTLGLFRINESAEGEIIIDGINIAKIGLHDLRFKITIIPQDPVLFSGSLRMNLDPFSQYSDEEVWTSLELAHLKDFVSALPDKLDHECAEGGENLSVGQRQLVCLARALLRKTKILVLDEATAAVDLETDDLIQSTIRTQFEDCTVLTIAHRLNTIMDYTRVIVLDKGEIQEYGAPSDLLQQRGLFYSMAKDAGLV

inhibition at 50 µM [%]	SMILES
65	CCOC(=O)C1=C(C)NC(C)=C(C(=O)OCC)C1c1ccc(Cl)cc1

Biological target: T2, Multidrug resistance-associated protein 1 (Homo sapiens, UniProt P33527)
Assay: Inhibition of Homo sapiens (human) MRP1 expressed in Sf9 cell membranes assessed as decrease in N-ethyl-maleimide-glutathione-induced inorganic phosphate production at 1 to 1000 uM by spectrophotometric analysis in presence of glutathione
Conditions: not given

T2 sequence (P33527 whole entry): as above

inhibition (INH)	SMILES
Not Active	CCOC(=O)C1=C(C)NC(C)=C(C(=O)OCC)C1c1ccc(OC)cc1
Not Active	COC(=O)C1=C(C)NC(C)=C(C(=O)OC)C1c1ccc(C)cc1
Not Active	COC(=O)C1=C(C)NC(C)=C(C(=O)OC)C1c1ccc(Cl)cc1
Not Active	CCOC(=O)C1=C(C)NC(C)=C(C(=O)OCC)C1c1cccc([N+](=O)[O-])c1
Not Active	CCCCC1C(C(=O)OCC)=C(C)NC(C)=C1C(=O)OCC
Not Active	CCCC1C(C(=O)OCC)=C(C)NC(C)=C1C(=O)OCC

Biological target: T2, Multidrug resistance-associated protein 1
Assay: Inhibition of Homo sapiens (human) MRP1 expressed in Sf9 cell membranes assessed as decrease in N-ethyl-maleimide-glutathione-induced inorganic phosphate production by spectrophotometric analysis in presence of glutathione
Conditions: not given

IC50 [µM]	SMILES
16	CCOC(=O)C1=C(C)NC(C)=C(C(=O)OCC)C1c1ccc(Cl)cc1

Biological target: T1, MRP1
Assay: Inhibition of Homo sapiens (human) MRP1 expressed in Sf9 cell membranes assessed as decrease in N-ethyl-maleimide-glutathione-induced inorganic phosphate production at 10 uM by spectrophotometric analysis in presence of glutathione relative to control
Conditions: Sf9 cell membranes expressing human MRP1, probe N-ethyl-maleimide-glutathione

inhibition at 10 µM [%]	SMILES
47	CCOC(=O)C1=C(C)NC(C)=C(C(=O)OCC)C1c1ccc(Cl)cc1

Test system: HSC-2
Assay: Cytotoxicity against Homo sapiens (human) HSC2 cells
Type: functional, cell-based
Conditions: not given

SMILES	IC50 [µM]
CC1=C(C(=O)c2ccccc2)C(c2ccccc2Cl)C(C(=O)c2ccccc2)=C(C)N1	7
CC1=C(C(=O)c2ccccc2)C(c2ccccc2C(F)(F)F)C(C(=O)c2ccccc2)=C(C)N1	8.7
